What all share (test): pIC50, kinobeads binding competition
In one assay the target is CIT (UniProt O14578). The essentials:
(§1)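 Jurkat cells were exposed alive to nine compound concentrations (top 30 μM, 1:4 steps) or vehicle for 60 min at 37 °C and then lysed. In a second format, nine concentrations (top 30 μM, 1:5 steps) were incubated for 60 min at 4 °C with Jurkat lysate or with a 1:1:1:1 lysate mix of HEK293, K-562, HepG2 and placenta. Proteins captured on Kinobeads were digested and quantified by TMT10 LC-MS/MS. pIC50 values were derived from logistic dose-response fits (R drc package) of fold changes relative to vehicle, in biological duplicates.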

For the next assay, the target named is CSK (UniProt P41240). The gist of the method:
as §1

A further assay has as its target FGFR4 (UniProt P22455). As to conditions: cell material: Lysate mix. The gist of the method: as §1
The target in another assay is MARK2 (UniProt Q7KZI7). The essentials:
as §1

A further assay concerns the target PIM3 (UniProt Q86V86). The essentials:
as §1

In a further assay the target is T1, PRKD2 (UniProt Q9BZL6).
T1 sequence (whole entry): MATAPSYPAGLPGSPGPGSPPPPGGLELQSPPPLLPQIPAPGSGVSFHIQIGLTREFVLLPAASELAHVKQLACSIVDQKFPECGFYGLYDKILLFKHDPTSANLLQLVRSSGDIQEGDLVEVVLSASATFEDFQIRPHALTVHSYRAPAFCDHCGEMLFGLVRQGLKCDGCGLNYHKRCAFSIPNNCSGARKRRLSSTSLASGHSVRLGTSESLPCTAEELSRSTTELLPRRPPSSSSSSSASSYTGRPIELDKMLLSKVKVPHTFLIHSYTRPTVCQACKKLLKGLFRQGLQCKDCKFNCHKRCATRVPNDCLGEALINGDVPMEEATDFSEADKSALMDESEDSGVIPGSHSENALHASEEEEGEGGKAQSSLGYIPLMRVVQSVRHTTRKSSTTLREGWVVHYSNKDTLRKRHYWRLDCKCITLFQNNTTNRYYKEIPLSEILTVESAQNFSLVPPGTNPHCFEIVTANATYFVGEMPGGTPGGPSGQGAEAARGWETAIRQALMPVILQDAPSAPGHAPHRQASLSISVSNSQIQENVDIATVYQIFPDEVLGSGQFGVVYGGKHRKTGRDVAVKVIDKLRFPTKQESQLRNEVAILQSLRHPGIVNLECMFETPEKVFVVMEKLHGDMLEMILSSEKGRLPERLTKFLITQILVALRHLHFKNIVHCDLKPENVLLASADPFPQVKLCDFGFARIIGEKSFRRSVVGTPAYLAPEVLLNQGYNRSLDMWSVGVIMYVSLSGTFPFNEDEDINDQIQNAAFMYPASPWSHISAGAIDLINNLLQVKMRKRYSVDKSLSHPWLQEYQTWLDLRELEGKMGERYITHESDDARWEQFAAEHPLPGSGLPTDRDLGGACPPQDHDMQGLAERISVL
The essentials:
as §1

The next assay has as its target TAOK3 (UniProt Q9H2K8). The essentials:
as §1

The next assay has as its target T2, UniProt O15111.
T2 sequence (whole entry): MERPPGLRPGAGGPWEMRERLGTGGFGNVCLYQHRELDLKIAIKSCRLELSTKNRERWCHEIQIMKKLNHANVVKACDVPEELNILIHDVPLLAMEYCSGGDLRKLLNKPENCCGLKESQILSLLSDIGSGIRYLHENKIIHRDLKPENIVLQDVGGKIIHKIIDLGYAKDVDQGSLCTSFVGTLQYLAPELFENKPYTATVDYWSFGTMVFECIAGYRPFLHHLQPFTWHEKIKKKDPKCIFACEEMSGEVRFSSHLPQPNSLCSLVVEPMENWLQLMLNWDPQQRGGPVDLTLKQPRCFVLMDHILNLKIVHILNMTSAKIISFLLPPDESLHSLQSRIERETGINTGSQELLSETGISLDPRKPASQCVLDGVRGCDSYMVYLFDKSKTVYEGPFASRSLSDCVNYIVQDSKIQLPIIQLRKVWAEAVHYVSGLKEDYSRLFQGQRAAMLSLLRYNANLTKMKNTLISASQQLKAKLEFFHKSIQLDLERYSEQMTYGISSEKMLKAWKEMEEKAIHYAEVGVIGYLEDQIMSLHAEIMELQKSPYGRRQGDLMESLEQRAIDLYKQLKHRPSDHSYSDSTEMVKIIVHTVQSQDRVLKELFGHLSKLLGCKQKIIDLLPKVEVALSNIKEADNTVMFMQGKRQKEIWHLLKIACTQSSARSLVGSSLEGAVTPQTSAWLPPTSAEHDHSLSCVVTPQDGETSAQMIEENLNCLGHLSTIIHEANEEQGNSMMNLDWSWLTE
The gist of the method: as §1

A further assay addresses UniProt P04629. As to conditions: cell material: Lysate mix. The gist of the method:
as §1

The target of another assay is UniProt P27448. The essentials:
as §1

Another assay concerns the target UniProt P49674. The gist of the method: as §1
The next assay addresses UniProt Q05397. The gist of the method: as §1

Results on six molecules are retold here after the supplement of paper PMC12076712.

Structures are written as SMILES. Where only a bound is given, the exact number is not on record here.

Sequence of UniProt P49674 (P49674 whole entry, looked up): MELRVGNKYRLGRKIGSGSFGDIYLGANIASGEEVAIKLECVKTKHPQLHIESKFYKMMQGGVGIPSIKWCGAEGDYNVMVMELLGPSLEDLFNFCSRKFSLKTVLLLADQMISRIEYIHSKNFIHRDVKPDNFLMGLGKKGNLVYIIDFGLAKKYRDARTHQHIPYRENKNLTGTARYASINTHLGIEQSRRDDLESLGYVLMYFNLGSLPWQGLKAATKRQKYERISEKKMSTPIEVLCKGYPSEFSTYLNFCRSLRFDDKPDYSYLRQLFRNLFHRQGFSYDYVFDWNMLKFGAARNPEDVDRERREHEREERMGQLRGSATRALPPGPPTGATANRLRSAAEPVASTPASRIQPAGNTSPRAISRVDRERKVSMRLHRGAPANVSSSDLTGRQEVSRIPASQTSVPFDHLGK
Sequence of MARK2 (Q7KZI7 whole entry): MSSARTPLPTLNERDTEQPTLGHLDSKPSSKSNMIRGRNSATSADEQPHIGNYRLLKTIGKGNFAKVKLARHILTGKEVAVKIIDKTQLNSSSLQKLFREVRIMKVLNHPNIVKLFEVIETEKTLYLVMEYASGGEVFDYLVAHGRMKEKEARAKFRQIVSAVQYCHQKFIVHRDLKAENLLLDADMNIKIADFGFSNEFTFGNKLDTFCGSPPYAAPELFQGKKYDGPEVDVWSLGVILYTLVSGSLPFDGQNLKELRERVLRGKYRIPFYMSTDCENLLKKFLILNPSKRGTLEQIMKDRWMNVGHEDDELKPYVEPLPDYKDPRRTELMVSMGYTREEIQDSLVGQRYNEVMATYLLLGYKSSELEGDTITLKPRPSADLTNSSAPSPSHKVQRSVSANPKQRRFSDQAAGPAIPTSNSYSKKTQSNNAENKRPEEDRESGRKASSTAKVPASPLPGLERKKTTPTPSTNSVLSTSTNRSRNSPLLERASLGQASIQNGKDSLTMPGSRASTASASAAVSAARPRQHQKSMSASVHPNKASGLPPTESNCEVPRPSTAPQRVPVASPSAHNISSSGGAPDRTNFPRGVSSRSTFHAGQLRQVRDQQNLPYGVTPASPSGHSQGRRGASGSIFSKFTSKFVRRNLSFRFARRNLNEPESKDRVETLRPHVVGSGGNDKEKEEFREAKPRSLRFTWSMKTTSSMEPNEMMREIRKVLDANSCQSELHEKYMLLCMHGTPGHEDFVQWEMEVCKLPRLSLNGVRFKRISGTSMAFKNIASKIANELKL
Sequence of TAOK3 (Q9H2K8 whole entry, looked up): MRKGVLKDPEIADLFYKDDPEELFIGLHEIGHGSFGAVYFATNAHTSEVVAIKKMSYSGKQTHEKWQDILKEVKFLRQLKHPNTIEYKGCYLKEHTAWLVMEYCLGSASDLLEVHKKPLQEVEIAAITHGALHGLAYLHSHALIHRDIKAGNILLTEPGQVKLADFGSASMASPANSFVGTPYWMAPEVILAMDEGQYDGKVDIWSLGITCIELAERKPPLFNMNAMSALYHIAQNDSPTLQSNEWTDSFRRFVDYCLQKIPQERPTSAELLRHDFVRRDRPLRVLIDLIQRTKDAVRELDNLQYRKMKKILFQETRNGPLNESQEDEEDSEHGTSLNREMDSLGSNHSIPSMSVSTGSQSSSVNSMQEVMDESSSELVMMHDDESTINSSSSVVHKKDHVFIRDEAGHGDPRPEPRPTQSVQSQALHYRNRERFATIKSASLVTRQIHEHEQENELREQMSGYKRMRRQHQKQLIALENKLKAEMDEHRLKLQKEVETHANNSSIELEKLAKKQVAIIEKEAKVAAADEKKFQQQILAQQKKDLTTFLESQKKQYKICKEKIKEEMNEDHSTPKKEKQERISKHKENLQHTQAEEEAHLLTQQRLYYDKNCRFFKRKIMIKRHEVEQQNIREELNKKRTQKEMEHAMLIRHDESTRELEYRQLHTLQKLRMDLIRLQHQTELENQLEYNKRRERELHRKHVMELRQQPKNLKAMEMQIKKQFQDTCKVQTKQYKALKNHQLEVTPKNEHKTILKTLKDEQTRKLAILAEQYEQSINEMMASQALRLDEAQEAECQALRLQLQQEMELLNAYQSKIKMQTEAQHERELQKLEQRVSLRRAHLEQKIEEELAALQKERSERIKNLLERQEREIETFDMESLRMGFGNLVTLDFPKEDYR
Sequence of UniProt P27448 (P27448 whole entry, looked up): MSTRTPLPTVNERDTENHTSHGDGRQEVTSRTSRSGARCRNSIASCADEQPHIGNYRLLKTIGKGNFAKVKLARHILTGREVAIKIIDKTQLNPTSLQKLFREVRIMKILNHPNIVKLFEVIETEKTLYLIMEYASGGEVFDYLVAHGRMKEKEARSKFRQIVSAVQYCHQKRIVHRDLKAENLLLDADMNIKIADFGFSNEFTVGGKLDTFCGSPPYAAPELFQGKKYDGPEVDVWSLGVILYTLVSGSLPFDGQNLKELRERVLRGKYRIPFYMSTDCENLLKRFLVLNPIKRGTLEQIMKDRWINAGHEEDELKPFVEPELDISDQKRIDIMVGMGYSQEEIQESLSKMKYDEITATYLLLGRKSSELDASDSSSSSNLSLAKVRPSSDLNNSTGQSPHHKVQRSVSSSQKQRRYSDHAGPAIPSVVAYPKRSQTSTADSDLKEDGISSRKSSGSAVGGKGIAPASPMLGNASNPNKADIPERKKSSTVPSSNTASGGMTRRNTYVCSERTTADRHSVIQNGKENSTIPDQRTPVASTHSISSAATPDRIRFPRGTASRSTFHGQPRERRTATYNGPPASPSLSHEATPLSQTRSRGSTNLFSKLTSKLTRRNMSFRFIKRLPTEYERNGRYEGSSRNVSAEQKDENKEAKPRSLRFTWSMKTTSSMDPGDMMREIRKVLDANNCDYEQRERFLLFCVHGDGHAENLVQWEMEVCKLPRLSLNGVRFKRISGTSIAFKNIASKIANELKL
Sequence of UniProt Q05397 (Q05397 whole entry, looked up): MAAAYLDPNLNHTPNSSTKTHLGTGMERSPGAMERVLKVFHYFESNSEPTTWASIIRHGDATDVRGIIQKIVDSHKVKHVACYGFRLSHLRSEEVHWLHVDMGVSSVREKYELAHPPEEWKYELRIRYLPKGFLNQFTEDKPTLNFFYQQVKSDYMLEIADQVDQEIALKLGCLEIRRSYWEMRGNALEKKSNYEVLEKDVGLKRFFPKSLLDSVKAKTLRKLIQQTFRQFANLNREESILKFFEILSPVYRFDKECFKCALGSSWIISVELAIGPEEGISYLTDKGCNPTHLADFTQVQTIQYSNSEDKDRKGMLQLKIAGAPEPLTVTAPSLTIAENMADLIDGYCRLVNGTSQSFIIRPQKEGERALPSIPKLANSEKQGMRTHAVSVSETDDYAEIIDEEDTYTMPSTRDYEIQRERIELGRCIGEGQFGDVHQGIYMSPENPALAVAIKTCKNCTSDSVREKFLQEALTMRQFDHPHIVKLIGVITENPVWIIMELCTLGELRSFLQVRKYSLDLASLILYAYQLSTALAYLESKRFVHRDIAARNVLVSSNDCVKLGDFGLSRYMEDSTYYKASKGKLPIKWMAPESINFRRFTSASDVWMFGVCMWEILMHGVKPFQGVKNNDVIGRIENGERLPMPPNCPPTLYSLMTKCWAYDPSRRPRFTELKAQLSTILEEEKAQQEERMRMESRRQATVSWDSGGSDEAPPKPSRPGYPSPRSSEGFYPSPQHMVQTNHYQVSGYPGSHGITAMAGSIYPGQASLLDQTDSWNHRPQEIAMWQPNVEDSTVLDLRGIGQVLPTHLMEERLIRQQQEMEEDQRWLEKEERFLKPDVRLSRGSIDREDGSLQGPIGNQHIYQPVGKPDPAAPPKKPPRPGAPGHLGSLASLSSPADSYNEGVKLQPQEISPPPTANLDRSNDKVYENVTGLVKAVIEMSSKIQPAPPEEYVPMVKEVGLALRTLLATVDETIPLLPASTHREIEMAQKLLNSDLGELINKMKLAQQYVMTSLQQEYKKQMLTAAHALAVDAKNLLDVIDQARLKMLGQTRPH
Sequence of CSK (P41240 whole entry, looked up): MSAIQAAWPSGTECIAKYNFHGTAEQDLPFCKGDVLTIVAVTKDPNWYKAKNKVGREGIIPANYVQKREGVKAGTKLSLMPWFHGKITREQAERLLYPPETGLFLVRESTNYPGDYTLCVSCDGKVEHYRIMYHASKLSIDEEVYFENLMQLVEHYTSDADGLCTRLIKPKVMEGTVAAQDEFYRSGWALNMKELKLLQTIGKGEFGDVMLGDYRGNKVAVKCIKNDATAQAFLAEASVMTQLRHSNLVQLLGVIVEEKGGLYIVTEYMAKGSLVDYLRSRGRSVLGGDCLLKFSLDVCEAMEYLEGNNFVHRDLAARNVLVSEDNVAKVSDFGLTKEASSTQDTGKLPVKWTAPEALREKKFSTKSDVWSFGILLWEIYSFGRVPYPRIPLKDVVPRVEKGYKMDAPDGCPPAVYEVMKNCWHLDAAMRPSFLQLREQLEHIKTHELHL

In general, pIC50 refers to the negative decadic logarithm of the IC50, by convention in mol/L. Low values mean a large IC50, high ones a small IC50. Consider `C#CCNC(=O)c1cc(Nc2cc(C)[nH]n2)nc(N2CCN(Cc3ccc(S(=O)(=O)F)cc3)CC2)n1`, for which the pIC50 on CIT (cell material: Lysate mix), at CSK (cell material: Lysate mix), on FGFR4, at MARK2 (cell material: Lysate mix), on PIM3 (cell material: Lysate mix) and at PRKD2 (cell material: Lysate mix) was < 4.52 each time. Besides, the pIC50 at TAOK3 (cell material: Lysate mix), on UniProt O15111 (cell material: Lysate mix), on UniProt P04629, on UniProt P27448 (cell material: Lysate mix), on UniProt P49674 (cell material: Lysate mix) and on UniProt Q05397 (cell material: Lysate mix) was < 4.52 in each case.
As for `O=C(NCCNC(=O)c1cc(Nc2cc(C3CC3)[nH]n2)nc(N2CCN(Cc3ccc(S(=O)(=O)F)cc3)CC2)n1)OC1CC/C=C/CCC1` (stereo not drawn), the negative-log IC50 (pIC50) at CIT (cell material: Jurkat cells), at CIT (cell material: Jurkat lysate), at CIT (cell material: Lysate mix), at CSK (cell material: Jurkat cells), at CSK (cell material: Jurkat lysate) and on CSK (cell material: Lysate mix) was < 4.52 in each case. The pIC50 at FGFR4 is < 4.52; at MARK2 (cell material: Jurkat cells), 5.04; on MARK2 (cell material: Jurkat lysate), < 4.52; on MARK2 (cell material: Lysate mix), < 4.52; at PIM3 (cell material: Jurkat cells) it was 5.49; at PIM3 (cell material: Jurkat lysate), < 4.52. Also, the pIC50 was < 4.52 on PIM3 (cell material: Lysate mix); < 4.52 at PRKD2 (cell material: Jurkat cells); < 4.52 on PRKD2 (cell material: Jurkat lysate); < 4.52 on PRKD2 (cell material: Lysate mix); 6.22 on TAOK3 (cell material: Jurkat cells); 5.61 at TAOK3 (cell material: Jurkat lysate). Further, the negative-log IC50 (pIC50) at TAOK3 (cell material: Lysate mix) is 5.55; at UniProt O15111 (cell material: Jurkat cells), < 4.52; at UniProt O15111 (cell material: Jurkat lysate) it was < 4.52; on UniProt O15111 (cell material: Lysate mix), < 4.52; at UniProt P04629 it was < 4.52; at UniProt P27448 (cell material: Jurkat lysate), < 4.52. The pIC50 on UniProt P27448 (cell material: Lysate mix), at UniProt P49674 (cell material: Jurkat lysate), at UniProt P49674 (cell material: Lysate mix), at UniProt Q05397 (cell material: Jurkat cells), at UniProt Q05397 (cell material: Jurkat lysate) and on UniProt Q05397 (cell material: Lysate mix) was < 4.52 in each case.
Consider `CCNC(=O)c1cc(Nc2cc(C3CC3)[nH]n2)nc(N2CCN(Cc3ccc(S(=O)(=O)F)cc3)CC2)n1`, for which the pIC50 on CIT (cell material: Lysate mix), on CSK (cell material: Lysate mix), at FGFR4, at MARK2 (cell material: Lysate mix), on PIM3 (cell material: Lysate mix) and at PRKD2 (cell material: Lysate mix) was < 4.52 each time. The pIC50 was < 4.52 on TAOK3 (cell material: Lysate mix); < 4.52 on UniProt O15111 (cell material: Lysate mix); 5.58 at UniProt P04629; < 4.52 at UniProt P27448 (cell material: Lysate mix); < 4.52 on UniProt P49674 (cell material: Lysate mix); < 4.52 on UniProt Q05397 (cell material: Lysate mix).
`Cc1cc(Nc2cc(C(=O)NCCNC(=O)OC3CC/C=C/CCC3)nc(N3CCN(Cc4ccc(S(=O)(=O)F)cc4)CC3)n2)n[nH]1` (stereo not drawn): the pIC50 at CIT (cell material: Lysate mix), at CSK (cell material: Lysate mix), on FGFR4, at MARK2 (cell material: Lysate mix), at PIM3 (cell material: Lysate mix) and at PRKD2 (cell material: Lysate mix) was < 4.52 each time. For the same molecule, the pIC50 was 6.03 at TAOK3 (cell material: Lysate mix); < 4.52 on UniProt O15111 (cell material: Lysate mix); < 4.52 on UniProt P04629; < 4.52 on UniProt P27448 (cell material: Lysate mix); < 4.52 at UniProt P49674 (cell material: Lysate mix); < 4.52 at UniProt Q05397 (cell material: Lysate mix).
As for `CCNC(=O)c1cc(Nc2cc(C)[nH]n2)nc(N2CCN(Cc3ccc(S(=O)(=O)F)cc3)CC2)n1`, the pIC50 on CIT (cell material: Lysate mix), on CSK (cell material: Lysate mix), at FGFR4, at MARK2 (cell material: Lysate mix), on PIM3 (cell material: Lysate mix) and at PRKD2 (cell material: Lysate mix) was < 4.52 throughout. Besides, the pIC50 at TAOK3 (cell material: Lysate mix), on UniProt O15111 (cell material: Lysate mix), on UniProt P04629, at UniProt P27448 (cell material: Lysate mix), on UniProt P49674 (cell material: Lysate mix) and at UniProt Q05397 (cell material: Lysate mix) was < 4.52 in each case.
Take `C#CCNC(=O)c1cc(Nc2cc(C3CC3)[nH]n2)nc(N2CCN(Cc3ccc(S(=O)(=O)F)cc3)CC2)n1`: the pIC50 on CIT (cell material: Jurkat lysate) is < 4.52; at CIT (cell material: Lysate mix), < 4.52; at CSK (cell material: Jurkat cells) it was 5.55; at CSK (cell material: Jurkat lysate), < 4.52; on CSK (cell material: Lysate mix), < 4.52; at FGFR4, < 4.52. In addition, the pIC50 on MARK2 (cell material: Jurkat cells) is 5.92; on MARK2 (cell material: Jurkat lysate), < 4.52; at MARK2 (cell material: Lysate mix), < 4.52; on PIM3 (cell material: Jurkat lysate) it was < 4.52; on PIM3 (cell material: Lysate mix), < 4.52; at PRKD2 (cell material: Jurkat cells), 5.42. Moreover, the pIC50 is < 4.52 on PRKD2 (cell material: Jurkat lysate); < 4.52 at PRKD2 (cell material: Lysate mix); 5.56 at TAOK3 (cell material: Jurkat cells); < 4.52 on TAOK3 (cell material: Jurkat lysate); < 4.52 on TAOK3 (cell material: Lysate mix); < 4.52 on UniProt O15111 (cell material: Jurkat cells). Further, the negative-log IC50 (pIC50) was < 4.52 at UniProt O15111 (cell material: Jurkat lysate); < 4.52 on UniProt O15111 (cell material: Lysate mix); 5.39 at UniProt P04629; 5.81 at UniProt P27448 (cell material: Jurkat cells); < 4.52 at UniProt P27448 (cell material: Jurkat lysate); < 4.52 at UniProt P27448 (cell material: Lysate mix). Moreover, the negative logarithm of the IC50 (pIC50) on UniProt P49674 (cell material: Jurkat cells) is 5.4; on UniProt P49674 (cell material: Jurkat lysate) it was < 4.52; on UniProt P49674 (cell material: Lysate mix), < 4.52; at UniProt Q05397 (cell material: Jurkat cells), < 4.52; on UniProt Q05397 (cell material: Jurkat lysate), < 4.52; at UniProt Q05397 (cell material: Lysate mix), < 4.52.
